Read-outs that look alike come from different tables or passages of the source.
How the values were obtained:
[1] = In vitro transepithelial transport study across MDCK monolayers; conditions: dog, pH 7.4
Procedure: (§1) The epithelial Mardi–Darby canine kidney cell line (MDCK) cells were grown in Modified α-Eagle Medium supplemented with 10% FBS and 0.5% antibiotic–antimycotic solution [13]. MDCK cells were harvested with trypsin-EDTA and seeded on polycarbonate filters (pore size: 0.3 μm, growth area: 0.9 cm^2, 12 wells/plate, Beckton Dickinson Bioscience) at a density of 1.8 × 10^5 cells/well. The culture medium was changed every 2 days. The monolayer was used for in vitro transport studies, 6–7 days after seeding.
(§2) In transport studies using Caco-2, Calu-3, MDCK, and MucilAir, a transport medium (TM; Hank’s balanced salts solution supplemented with 15 mM glucose and 10 mM HEPES good buffer, pH 7.4) was used. […] The permeability of mannitol across MucilAir was cited from the literature.

in vitro = conditions: human, Caco-2, pH 7.4
Procedure: (§3) Cells of the human colon adenocarcinoma cell line, Caco-2, were grown in Dulbecco’s Modified Eagle Medium (DMEM) supplemented with 10% fetal bovine serum (FBS), 1% L-glutamine, 1% non-essential amino acid, and 0.5% antibiotic–antimycotic solution [20]. Caco-2 cells were harvested with trypsin-EDTA and seeded on polycarbonate filters (pore size: 0.3 μm, growth area: 0.9 cm^2, 12 wells/plate, Beckton Dickinson Bioscience, Bedford, MA, USA) at a density of 1.8 × 10^5 cells/well. The culture medium was changed every 2 days. The monolayer was used for in vitro transport studies, 17–20 days after seeding.
as §2

[2] = In vitro transepithelial transport study across MucilAir tissues; conditions: human, pH 7.4
[3] = nasal application to rats, AUCn/AUCiv; mean ± S.E.; determined in this study by the same method as ref 11
Procedure: Under anesthesia by intraperitoneal sodium pentobarbital (50 mg/kg, Nembutal, Abbott Laboratories, Abbott Park, IL, USA), the right femoral artery was cannulated with polyethylene tubing (SP-31, Natsume, Tokyo, Japan) for the collection of blood samples. […] Blood samples were collected from arterial tubing in heparinized tubes at predetermined time intervals for 120 min. The blood was centrifuged to obtain the plasma.
Under light isoflurane anesthesia, the right femoral artery was cannulated with polyethylene tubing. A drug dissolved in 5 µL of phosphate buffer saline (pH 7.4) was instilled at 1 cm depth from the nostril by microsyringe. Thereafter, animals were kept in a cage (KN-326-III, Natsume, Tokyo, Japan) throughout the experiment. It usually took 5 min after drug instillation for the rat to recover from the anesthesia. Blood samples were collected for 360 min after drug administration. During this period, the animal was allowed free access to water.
Fractional nasal absorption (Fn) was calculated as follows:Fn = AUCn/AUCiv(2) where AUCn and AUCiv are the area under the concentration–time profile following the nasal and intravenous administration of the drug. AUC was calculated according to the trapezoidal rule up to the last sampling point and extrapolation after the last sampling point.

MucilAir [4] = test system: MucilAir; design: method as in PMID 24216300; conditions: [3H] mannitol; cited from the previous report; cited from earlier work
[5] = cited from earlier work
MDCK [6] = test system: MDCK; design: method as in PMID 23200901; conditions: [14C] D-mannitol; cited from the previous report; cited from earlier work
MDCK [7] = test: in vitro; conditions: pH 7.4
Procedure: as §1, §2

Caco-2 = test: in vitro
Procedure: as §3, §2

MucilAir [8] = conditions: pH 7.4
EpiAirway = test: In vitro transepithelial transport study across EpiAirway tissues
Procedure: Upon arrival, the primary human tracheal/bronchial epithelial cell system, EpiAirway, and the primary human bronchial epithelial cell system, MucilAir, were transferred to the well filled with 0.9 mL assay medium for EpiAirway and 0.7 mL MucilAir culture medium, which are serum free and contain growth factors and phenol red and are supplemented by default with antibiotics (penicillin/streptomycin). Both tissues were subsequently placed in an incubator with 5% CO2 at 37 °C. Both tissues were cultured in an air–liquid interface condition. EpiAirway tissues were used for the transport study following the overnight equilibration in assay medium. The mucous surface of MucilAir tissues was washed with 0.2 mL culture medium 2 days before the experiment in order to adjust the mucous level of each well. The permeation experiment using EpiAirway and MucilAir was conducted according to the manufacturer’s instructions.
In the transport study using EpiAirway, all the procedures were based on the Drug Delivery Protocol established by MatTek Corporation (https://www.mattek.com/wp-content/uploads/EpiAirway-Drug-Delivery-Protocol.pdf), and carried out in Absorption Systems LP. Dulbecco’s Phosphate Buffered Saline (DPBS) without Ca^2+ and Mg^2+ (pH 7.4) was used as the assay buffer. […] Radioactivity was 2 µCi/mL for the dosed [^3H] inulin and 0.5 µCi/mL for the dosed [^14C] mannitol. […]

Calu-3 = test: In vitro transepithelial transport study across Calu-3 monolayers
Procedure: as §1, with “Cells of the human bronchial submucosal gland carcinoma” for “The epithelial Mardi–Darby canine kidney”, “line, Calu-3,” for “line (MDCK) cells”, “DMEM nutrient mixture F-12 HAM” for “Modified α-Eagle Medium”, “[21]. Calu-3” for “[13]. MDCK”, “4.5” for “1.8”, “9–10” for “6–7”
as §2

[9] = apical to basal, 10 µM, pH 7.4, 37 °C, up to 60 min, mean ± S.E. of 3–4 experiments, inulin as [14C] inulin, mannitol as [14C] D-mannitol

With `Nc1nc2c(ncn2COCCO)c(=O)[nH]1` [Acyclovir, acyclovir] the Papp at 60 min, 10 µM [1] was 0.61 ± 0.23 ×10⁻⁶ cm/s, the Papp at 60 min, 10 µM (in vitro) was 1.29 ± 0.28 ×10⁻⁶ cm/s and the Papp at 60 min, 10 µM [2] was 0.48 ± 0.05 ×10⁻⁶ cm/s.
In the case of `Cc1cc(=O)n(-c2ccccc2)n1C` [Antipyrine, antipyrine], the Papp at 60 min, 10 µM ([1]; MDCK) is reported as 32.5 ± 3.71 ×10⁻⁶ cm/s and the “Fractional Absorption (Fn)” value [3] is reported as 96.3 ± 4.2%.
For `OC[C@@H](O)[C@@H](O)[C@H](O)[C@H](O)CO` [Mannitol, mannitol], the “Permeability (Papp) MucilAir” value (MucilAir [4]) is listed as 0.2 ± 0.0 *^4,c ×10^−6cm/s, the “Fractional Absorption (Fn)” value ([5]; rat, in vivo) is listed as 52.9 ± 3.4 *^3% and the Papp at 60 min, 10 µM (in vitro) is listed as 0.92 ± 0.15 ×10⁻⁶ cm/s. The “Permeability (Papp) MDCK” value (MDCK [6]) was 0.18 ± 0.05 *^3,b ×10^−6cm/s.
`CN(Cc1cnc2nc(N)nc(N)c2n1)c1ccc(C(=O)N[C@@H](CCC(=O)O)C(=O)O)cc1` [Methotrexate, methotrexate] showed a Papp at 60 min, 10 µM [1] of 0.09 ± 0.03 ×10⁻⁶ cm/s, a Papp at 60 min, 10 µM (in vitro) of 0.29 ± 0.02 ×10⁻⁶ cm/s and a Papp at 60 min, 10 µM [2] of 0.31 ± 0.06 ×10⁻⁶ cm/s.
In the case of `C=C[C@H]1C[N@@]2CC[C@H]1C[C@@H]2[C@@H](O)c1ccnc2ccc(OC)cc12` [Quinidine, quinidine], the Papp at 60 min, 10 µM [1] is reported as 11.6 ± 1.31 ×10⁻⁶ cm/s and the Papp at 60 min, 10 µM [2] is reported as 18.6 ± 1.93 ×10⁻⁶ cm/s.
In the case of `Nc1ccc(S(=O)(=O)O)cc1` [Sulfanilic acid, sulfanilic acid], the “Permeability (Papp) MDCK” value (MDCK [7]) is listed as 0.43 ± 0.04 ×10^−6cm/s, the “Fractional Absorption (Fn)” value ([5]; rat, in vivo) is listed as 82.7 ± 9.0% and the “Permeability (Papp) Caco-2” value (Caco-2; Caco-2, pH 7.4) is listed as 0.58 ± 0.14 ×10^−6cm/s. The “Permeability (Papp) MucilAir” value (MucilAir [8]) was 0.58 ± 0.15 ×10^−6cm/s, the “Permeability (Papp) EpiAirway” value (EpiAirway; pH 7.4) was 2.78 ± 0.40 ×10^−6cm/s and the “Permeability (Papp) Calu-3” value (Calu-3; pH 7.4) was 0.75 ± 0.05 ×10^−6cm/s.
For inulin, the “Fractional Absorption (Fn)” value ([5]; nasal application to rats, AUCn/AUCiv, mean ± S.E., inulin as [14C] inulin, mannitol as [14C] D-mannitol) is listed as 12.4 ± 2.0 *^1%, the “Permeability (Papp) Caco-2” value (Caco-2; [9]) is listed as 0.34 ± 0.20 *^1 ×10^−6cm/s and the “Permeability (Papp) EpiAirway” value (EpiAirway; apical to basal, 10 µM, DPBS pH 7.4, 37 °C, up to 60 min, mean ± S.E. of 3–4 experiments, inulin as [3H] inulin, mannitol as [14C] D-mannitol) is listed as 2.83 ± 0.20 *^2 ×10^−6cm/s. The “Permeability (Papp) Calu-3” value (Calu-3; [9]) was 0.30 ± 0.09 *^1 ×10^−6cm/s.
